Assay results published in US10800775B2, “Pyrazolyl pyrrolo[2,3-b]pyrmidine-5-carboxylate analogs and methods of making the same” (ACLARIS THERAPEUTICS, INC., priority 2017, dated 2020).

Legend:
JAK3 (a.a. 781-1124) = JAK3 (a.a. 781-1124) (Homo sapiens (Human), UniProt P52333); assay: JAK3 enzyme activity assay (SRCtide phosphorylation, Caliper); assay type: biochemical; conditions: 2.5 nM JAK3, 1 μM SRCtide, 1 uM ATP; read-out: JAK3 Inhibition IC50
Procedure: The activity of JAK3 (a.a. 781-1124, ThermoFisher) was quantified by measuring the phosphorylation of SRCtide (FAM-GEEPLYWSFPAKKK-NH2). Kinase reactions were run in a 384-well Greiner plate with 2% final DMSO concentration under the buffer conditions of 20 mM HEPES, pH 7.5, 10 mM MgCl2, 0.01% BSA, and 0.0005% Tween-20. The kinase reaction components were 2.5 nM JAK3, 1 μM SRCtide peptide and 1 uM ATP. Examples were tested in dose-response starting at 2 μM (11 concentrations, 3-fold serial dilution, duplicate reactions). The reactions were incubated at room temperature for 40 minutes, then stopped by adding a 1:1 volume of 30 mM EDTA in 20 mM HEPES, pH 7.5 (15 mM EDTA final). After the reaction was stopped, the phosphorylated and unphosphorylated peptides were separated and quantified using a Caliper LC3000/EZ-Reader system and HTS Well Analyzer Software (Caliper, A PerkinElmer Company, Hopkinton, Mass.). GraFit (Erithacus Software Ltd., Horley, U.K.) was used to calculate inhibitor potency by fitting dose-response data to the 4-parameter logistical IC50 equation.

[1] = test system: IFNγ stimulated STAT1 phosphorylation on Tyr701 (JAK1/2); assay: JAK1/2 phospho-STAT1 cellular target modulation assay, IFNγ stimulated human PBMC; assay type: cell-based; conditions: IFNγ 10 ng/ml, read-out: Infγ-STAT1 IC50
Description: (§1) Target modulation was based upon the ability of a compound to inhibit JAK isoform specific phosphorylation of selected substrates. IL-2 stimulated STAT5 phosphorylation on Tyr694 was used to assess JAK1/3 compound selectivity. GM-CSF stimulated STAT5 phosphorylation on Tyr694 was used to assess JAK2 compound selectivity. IFNγ stimulated STAT1 phosphorylation on Tyr701 was used to assess JAK1/2 compound selectivity. For all three assays, human PBMC from frozen stocks were thawed, pelleted, resuspended in complete media (90% RPMI, 10% heat inactivated FBS, 10 mM HEPES, 47 μM 2-ME, pen/strep) and placed in wells of a 96 well V-bottom plate at 200,000 per well in 120 μl complete media. Compounds were added as 15 μl per well of 10× working stock solutions in complete media with 1% DMSO (or medium with 1% DMSO for controls) and placed on a plate shaker in a 37° C. incubator with 5% CO2 for 1 hour with gentle shaking (setting of 3). Stimulation used the addition of soluble cytokines. For the JAK1/3 phospho-STAT5 assay, 15 μl of 10× working stock recombinant human IL-2 was added to a final concentration of 25 ng/ml. For the JAK2 phospho-STAT5 assay, 15 μl of 10× working stock recombinant human GM-CSF was added to a final concentration of 5 ng/ml. For the JAK1/2 phospho-STAT1 assay, 15 μl of 10× working stock of recombinant human IFNγ was added to a final concentration of 10 ng/ml. Plates were then placed back on the plate shaker in the incubator for an additional 5, 5 and 10 minutes respectively upon which the plates were removed from the incubator, sealed with a plate sealer and the cells pelleted at 400×g for 5 minutes. After pelleting, the media was removed by aspiration and the cells were lysed in ELISA specific cell lysis buffer. The levels of phospho-STAT5 were determined using a Phospho (Tyr694)/Total STAT5a,b Whole Cell Lysate kit from Meso Scale Discovery. Levels of phospho-STAT1 were determined using a CST-PathScan Phospho-STAT1 (Tyr701) Sandwich ELISA kit.

JAK1 = JAK1 (Homo sapiens (Human), UniProt P23458); assay: JAK1 enzyme activity assay (Z-lyte, Thermo Fisher Selectscreen); assay type: biochemical; conditions: 2 μM Tyr 06 peptide, read-out: JAK1 Inhibition IC50
Procedure: The inhibitory potency of candidate compounds of JAK1 done at Thermo Fisher Scientific in their Selectscreen using a Z-lyte assay. The 2×JAK1/Tyr 06 mixture is prepared in 50 mM HEPES pH 6.5, 0.01% BRIJ-35, 10 mM MgCl2, 1 mM EGTA, 0.02% NaN3. The final 10 μL of the Kinase Reaction consists of 21.2-91.5 ng JAK1 and 2 μM Tyr 06 in 50 mM HEPES pH 7.0, 0.01% BRIJ-35, 10 mM MgCl2, 1 mM EGTA, 0.01% NaN3. After the 1 hour Kinase Reaction incubation, 5 μL of a 1:128 dilution of Development Reagent is added.
Background signal is defined in the absence of enzyme and uninhibited signal is defined in the presence of vehicle (2% DMSO) alone. Compounds were evaluated in an 11 point dose-response ranging from […] to 0.34 nM. IC50 values of compounds are determined using a 4 parameter logistical fit of emission ratio as a function of the concentration of compound.

[2] = test system: IL-2 stimulated STAT5 phosphorylation on Tyr694 (JAK1/3); assay: JAK1/3 phospho-STAT5 cellular target modulation assay, IL-2 stimulated human PBMC; assay type: cell-based; conditions: IL-2 25 ng/ml, read-out: IL2-STAT5 Inhibition IC50
Description: as §1

Sequence of JAK1 (P23458 whole entry): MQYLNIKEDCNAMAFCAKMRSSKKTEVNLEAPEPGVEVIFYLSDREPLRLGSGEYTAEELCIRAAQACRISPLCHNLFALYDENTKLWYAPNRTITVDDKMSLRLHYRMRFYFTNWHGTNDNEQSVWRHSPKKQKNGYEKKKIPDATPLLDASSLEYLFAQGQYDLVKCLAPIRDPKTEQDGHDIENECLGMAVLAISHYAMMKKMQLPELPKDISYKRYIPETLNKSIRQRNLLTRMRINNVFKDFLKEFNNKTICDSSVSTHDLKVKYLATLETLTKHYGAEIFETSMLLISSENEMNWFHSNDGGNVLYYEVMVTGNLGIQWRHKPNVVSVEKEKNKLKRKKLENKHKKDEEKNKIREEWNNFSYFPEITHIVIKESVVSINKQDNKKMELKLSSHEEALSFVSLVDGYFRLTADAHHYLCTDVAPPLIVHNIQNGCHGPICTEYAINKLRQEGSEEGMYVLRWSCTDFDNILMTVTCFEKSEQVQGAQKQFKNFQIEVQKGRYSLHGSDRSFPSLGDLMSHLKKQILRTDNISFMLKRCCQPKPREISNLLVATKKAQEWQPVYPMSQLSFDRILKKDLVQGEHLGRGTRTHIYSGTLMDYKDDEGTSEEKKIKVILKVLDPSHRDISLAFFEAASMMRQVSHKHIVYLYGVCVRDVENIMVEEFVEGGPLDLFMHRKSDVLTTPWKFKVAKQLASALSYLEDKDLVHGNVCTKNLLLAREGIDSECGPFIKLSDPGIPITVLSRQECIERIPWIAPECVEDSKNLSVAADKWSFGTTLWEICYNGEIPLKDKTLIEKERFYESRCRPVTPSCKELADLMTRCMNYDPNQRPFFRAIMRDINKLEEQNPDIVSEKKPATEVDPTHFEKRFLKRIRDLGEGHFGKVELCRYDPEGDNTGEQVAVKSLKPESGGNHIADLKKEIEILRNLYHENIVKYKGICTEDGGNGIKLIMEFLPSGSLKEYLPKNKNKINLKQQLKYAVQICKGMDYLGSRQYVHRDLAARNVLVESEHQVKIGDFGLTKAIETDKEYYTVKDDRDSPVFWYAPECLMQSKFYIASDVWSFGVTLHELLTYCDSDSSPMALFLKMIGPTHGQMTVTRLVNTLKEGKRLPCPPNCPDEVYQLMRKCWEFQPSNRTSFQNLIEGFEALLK
Sequence of JAK3 (a.a. 781-1124) (P52333 781-1124): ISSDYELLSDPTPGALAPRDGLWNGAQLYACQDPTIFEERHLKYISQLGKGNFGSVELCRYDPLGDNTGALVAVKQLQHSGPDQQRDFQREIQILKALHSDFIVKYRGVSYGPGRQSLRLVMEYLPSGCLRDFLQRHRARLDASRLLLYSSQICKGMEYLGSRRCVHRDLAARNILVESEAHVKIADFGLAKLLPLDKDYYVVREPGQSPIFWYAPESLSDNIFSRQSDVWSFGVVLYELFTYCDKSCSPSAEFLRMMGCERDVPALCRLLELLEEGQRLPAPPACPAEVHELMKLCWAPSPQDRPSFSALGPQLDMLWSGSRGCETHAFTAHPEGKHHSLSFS

Compound | IC50 (JAK3 (a.a. 781-1124)) | IC50 [1] | IC50 (JAK1) | IC50 [2]
CCOC(=O)c1cnc2[nH]ccc2c1-c1cnn(C(CC#N)C2CCCC2)c1 (racemic) [Example 1, ethyl 4-(1-(2-cyano-1-cyclopentylethyl)-1H-pyrazol-4-yl)-1H-pyrrolo[2,3-b]pyridine-5-carboxylate] | 10 to 100 nM | 100 to 1000 nM | ≤ 10 nM | 100 to 1000 nM
CC(C)OC(=O)c1cnc2[nH]ccc2c1-c1cnn([C@H](CC#N)C2CCCC2)c1 (single isomer, unassigned; enantiomer 1) [Example 18, isopropyl 4-(1-(2-cyano-1-cyclopentylethyl)-1H-pyrazol-4-yl)-1H-pyrrolo[2,3-b]pyridine-5-carboxylate, enantiomer 1] | 10 to 100 nM | 100 to 1000 nM | ≤ 10 nM | ≤ 100 nM
CC(C)OC(=O)c1cnc2[nH]ccc2c1-c1cnn([C@@H](CC#N)C2CCCC2)c1 (single isomer, unassigned; enantiomer 2) [Example 19, isopropyl 4-(1-(2-cyano-1-cyclopentylethyl)-1H-pyrazol-4-yl)-1H-pyrrolo[2,3-b]pyridine-5-carboxylate, enantiomer 2] | 10 to 100 nM | 100 to 1000 nM | 10 to 100 nM | ≤ 100 nM
CCOC(=O)c1cnc2[nH]ccc2c1-c1cnn([C@H](CC#N)C2CCCC2)c1 (single isomer, unassigned; stereoisomer 1) [Example 16, ethyl 4-(1-(2-cyano-1-cyclopentylethyl)-1H-pyrazol-4-yl)-1H-pyrrolo[2,3-b]pyridine-5-carboxylate stereoisomer 1] | 10 to 100 nM | 100 to 1000 nM | ≤ 10 nM | 100 to 1000 nM
CCOC(=O)c1cnc2[nH]ccc2c1-c1cnn([C@@H](CC#N)C2CCCC2)c1 (single isomer, unassigned; stereoisomer 2) [Example 17, ethyl 4-(1-(2-cyano-1-cyclopentylethyl)-1H-pyrazol-4-yl)-1H-pyrrolo[2,3-b]pyridine-5-carboxylate stereoisomer 2] | 10 to 100 nM | 100 to 1000 nM | 10 to 100 nM | 100 to 1000 nM
CCOC(=O)c1cnc2[nH]ccc2c1-c1cnn(C2(CC#N)CN(S(=O)(=O)CC)C2)c1 [Example 9, ethyl 4-(1-(3-(cyanomethyl)-1-(ethylsulfonyl)azetidin-3-yl)-1H-pyrazol-4-yl)-1H-pyrrolo[2,3b]pyridine-5-carboxylate] | 10 to 100 nM | 100 to 1000 nM | ≤ 10 nM | ≤ 100 nM
CCCOC(=O)c1cnc2[nH]ccc2c1-c1cnn([C@H](CC#N)C2CCCC2)c1 [Example 20, propyl (R)-4-(1-(2-cyano-1-cyclopentylethyl)-1H-pyrazol-4-yl)-1H-pyrrolo[2,3-b]pyridine-5-carboxylate] | 10 to 100 nM | 100 to 1000 nM | ≤ 10 nM | ≤ 100 nM
